From the supplement of paper PMC10307832

How the values were obtained:
Experiment in all cases: relative viability (nuclei count vs DMSO), 5 days (fraction); higher = more cells survive
FH535 + Bortezomib = compound: CC1=C(C=CC(=C1)[N+](=O)[O-])NS(=O)(=O)C2=C(C=CC(=C2)Cl)Cl [FH535] + CC(C)C[C@H](NC(=O)[C@H](Cc1ccccc1)NC(=O)c1cnccn1)B(O)O [Bortezomib] (partner 0.002 µM)
Summary of the method: (§1)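 Medians of duplicate plates are given as relative viability. That measure is the nuclei count in treated wells divided by the count in vehicle wells. Counts were taken on 4× images of lung cancer cell lines in 1536-well plates, 5 days after pin-tool dosing the day after seeding with one drug alone or a fixed anchor-drug dose plus five library-drug doses (not always all listed) in √10 steps.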

FH535 + Navitoclax = compound: CC1=C(C=CC(=C1)[N+](=O)[O-])NS(=O)(=O)C2=C(C=CC(=C2)Cl)Cl [FH535] + CC1(C)CCC(c2ccc(Cl)cc2)=C(CN2CCN(c3ccc(C(=O)NS(=O)(=O)c4ccc(N[C@H](CCN5CCOCC5)CSc5ccccc5)c(S(=O)(=O)C(F)(F)F)c4)cc3)CC2)C1 [Navitoclax] (partner 0.5 µM)
Summary of the method: as §1

FH535 + OSI-027 = compound: CC1=C(C=CC(=C1)[N+](=O)[O-])NS(=O)(=O)C2=C(C=CC(=C2)Cl)Cl [FH535] + COc1cccc2cc(-c3nc([C@H]4CC[C@H](C(=O)O)CC4)n4ncnc(N)c34)[nH]c12 [OSI-027] (partner 0.5 µM)
Summary of the method: as §1

FH535 + Lapatinib = compound: CC1=C(C=CC(=C1)[N+](=O)[O-])NS(=O)(=O)C2=C(C=CC(=C2)Cl)Cl [FH535] + CS(=O)(=O)CCNCc1ccc(-c2ccc3ncnc(Nc4ccc(OCc5cccc(F)c5)c(Cl)c4)c3c2)o1 [Lapatinib] (partner 2 µM)
Summary of the method: as §1

FH535 + Pictilisib = compound: CC1=C(C=CC(=C1)[N+](=O)[O-])NS(=O)(=O)C2=C(C=CC(=C2)Cl)Cl [FH535] + CS(=O)(=O)N1CCN(Cc2cc3nc(-c4cccc5[nH]ncc45)nc(N4CCOCC4)c3s2)CC1 [Pictilisib] (partner 1 µM)
Summary of the method: as §1

Row | Cell Line | relative viability (FH535 + Bortezomib; first compound 0.04 µM) | relative viability (FH535 + Bortezomib; first compound 0.1265 µM) | relative viability (FH535 + Bortezomib; first compound 0.4 µM) | relative viability (FH535 + Bortezomib; first compound 1.265 µM) | relative viability (FH535 + Navitoclax; first compound 0.04 µM) | relative viability (FH535 + Navitoclax; first compound 0.1265 µM) | relative viability (FH535 + Navitoclax; first compound 0.4 µM) | relative viability (FH535 + Navitoclax; first compound 1.265 µM) | relative viability (FH535 + OSI-027; first compound 0.04 µM) | relative viability (FH535 + OSI-027; first compound 0.1265 µM) | relative viability (FH535 + OSI-027; first compound 0.4 µM) | relative viability (FH535 + OSI-027; first compound 1.265 µM) | relative viability (FH535 + Lapatinib; first compound 0.04 µM) | relative viability (FH535 + Lapatinib; first compound 0.1265 µM) | relative viability (FH535 + Lapatinib; first compound 0.4 µM) | relative viability (FH535 + Lapatinib; first compound 1.265 µM) | relative viability (FH535 + Pictilisib; first compound 0.04 µM) | relative viability (FH535 + Pictilisib; first compound 0.1265 µM) | relative viability (FH535 + Pictilisib; first compound 0.4 µM) | relative viability (FH535 + Pictilisib; first compound 1.265 µM)
1 | NCI-H1915 | 0.955 | 0.855 | 0.986 | 0.904 | 0.745 | 0.822 | 0.777 | 0.69 | 0.542 | 0.683 | 0.552 | 0.525 | 0.867 | 0.826 | 0.852 | 0.795 | 0.732 | 0.903 | 0.835 | 0.77
2 | PC-3 [JPC-3] | 0.846 | 0.848 | 0.741 | 0.713 | 0.778 | 0.753 | 0.762 | 0.57 | 0.828 | 0.704 | 0.624 | 0.592 | 0.405 | 0.39 | 0.444 | 0.39 | 0.746 | 0.902 | 0.698 | 0.47
3 | SW 1573 | 0.957 | 1.12 | 1.07 | 0.862 | 0.938 | 1.01 | 0.837 | 0.768 | 0.601 | 0.613 | 0.67 | 0.445 | 1 | 1.19 | 1.18 | 0.98 | 0.485 | 0.612 | 0.471 | 0.465
4 | NCI-H1437 | 0.427 | 0.624 | 0.303 | 0.286 | 1.07 | 1.06 | 0.867 | 0.461 | 0.862 | 0.851 | 0.647 | 0.434 | 0.731 | 0.534 | 0.631 | 0.349 | 0.456 | 0.375 | 0.427 | 0.323
5 | NCI-H1734 | 0.775 | 0.894 | 0.771 | 0.828 | 0.802 | 0.902 | 0.86 | 0.735 | – | 0.633 | 0.55 | 0.503 | 1.01 | 1.14 | 0.955 | 0.935 | 0.458 | 0.523 | 0.489 | 0.416
6 | HCC-15 | 0.975 | 0.874 | 0.896 | 0.713 | 0.624 | 0.739 | 0.613 | 0.482 | 0.554 | 0.631 | 0.574 | 0.463 | 0.825 | 0.679 | 0.733 | 0.534 | 0.672 | 0.668 | 0.674 | 0.594
7 | HCC-366 | 1.1 | 1.12 | 0.987 | 0.925 | 0.942 | 1.08 | 0.995 | 0.976 | 0.695 | 0.862 | 1.09 | 0.756 | 1 | 1.11 | 0.999 | 0.913 | 0.132 | 0.137 | 0.116 | 0.125
8 | NCI-H2405 | 0.987 | 0.916 | 0.906 | 0.509 | 0.762 | 0.976 | 0.868 | 0.448 | 0.605 | 0.62 | 0.564 | 0.439 | 0.934 | 1.13 | 0.963 | 0.734 | 0.329 | 0.447 | 0.425 | 0.422
9 | LXF-289 | 0.96 | 0.996 | 0.928 | 0.723 | 0.996 | 0.936 | 0.945 | 0.645 | 0.735 | 0.809 | 0.688 | 0.69 | 0.88 | 0.878 | 0.886 | 0.801 | 0.69 | 0.793 | 0.758 | 0.681
10 | BEN | 0.755 | 0.615 | 0.647 | 0.475 | 0.0691 | 0.0603 | 0.0578 | 0.0625 | 0.287 | 0.281 | 0.313 | 0.27 | 0.678 | 0.674 | 0.604 | 0.398 | 0.548 | 0.617 | 0.459 | 0.41
11 | NCI-H2023 | 0.816 | 0.995 | 1.03 | 0.726 | 1 | 1 | 1.04 | 0.804 | 0.362 | 0.406 | 0.385 | 0.331 | 0.671 | 0.846 | 0.919 | 0.738 | 0.209 | 0.226 | 0.252 | 0.231
12 | NCI-H727 | 0.687 | 0.59 | 0.75 | 0.721 | 0.479 | 0.39 | 0.369 | 0.381 | 0.554 | 0.498 | 0.545 | 0.478 | 0.85 | 0.628 | 0.727 | 0.665 | 0.482 | 0.315 | 0.401 | 0.366
13 | NCI-H1355 | 1.09 | 1.2 | 1.15 | 1.03 | 0.862 | 0.998 | 0.88 | 0.66 | 0.366 | 0.466 | 0.349 | 0.303 | 0.92 | 1.01 | 0.933 | 0.883 | 0.362 | 0.503 | 0.378 | 0.33
